Results: patent US20230406885A1, “CYCLIC PEPTIDES FOR TRAPPING INTERLEUKIN-1 BETA” (MERCK SHARP & DOHME LLC, priority 2022, published 2023)
*1 amine or outer side, *2 acyl side, *3 side chain or, on linkers, in order; H or OH if unused. Where a SMILES comes first, the peptide text is derived from it. [ ]: non-standard residue; d: D form. Bip(4'-COOH) = N[C@@H](Cc1ccc(-c2ccc(C(=O)O)cc2)cc1)C(=O)O; 1Nal(3S-Me) = C[C@@H](c1cccc2ccccc12)[C@H](N)C(=O)O; Ala(indolin-1-yl) = N[C@@H](CN1CCc2ccccc21)C(=O)O; Trp(6-Cl) = N[C@@H](Cc1c[nH]c2cc(Cl)ccc12)C(=O)O; Phe(4-COOH) = N[C@@H](Cc1ccc(C(=O)O)cc1)C(=O)O; Trp(6-F) = N[C@@H](Cc1c[nH]c2cc(F)ccc12)C(=O)O; Trp(7-aza) = N[C@@H](Cc1c[nH]c2ncccc12)C(=O)O; X14 = C[N+](C)(C)CC[C@@H](N[*:1])C(=O)[*:2]; Pro(4R-NH2) = N[C@H]1CN[C@H](C(=O)O)C1; AEF = NCCOc1ccc(C[C@H](N)C(=O)O)cc1; hTyr = N[C@@H](CCc1ccc(O)cc1)C(=O)O; hCha = N[C@@H](CCC1CCCCC1)C(=O)O; dDab = NCC[C@@H](N)C(=O)O; dNMeA = CN[C@H](C)C(=O)O

molecular target: T1, Recombinant human IL-1β (Homo sapiens, UniProt P01584); assay: IL-6 assay in MRC5 cells: inhibition of IL-1β induced IL-6 secretion (AlphaLISA); assay type: cell-based; details: inhibition of IL-1β induced IL-6 secretion in MRC5 cells; read-out: MRC5 IC50
T1 construct: purchased BioLegend 579404
Outline: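 IL-1β at 2×EC80 in seeding medium (EMEM, 0.025% BSA) preincubated 1 h at ambient temperature with compound, then 3000 MRC5 cells/well added and incubated overnight at 37 °C, 5% CO2. IL-6 in conditioned medium quantified by AlphaLISA; IC50 from 4-parameter logistic fit.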

T1 sequence (P01584 117-269): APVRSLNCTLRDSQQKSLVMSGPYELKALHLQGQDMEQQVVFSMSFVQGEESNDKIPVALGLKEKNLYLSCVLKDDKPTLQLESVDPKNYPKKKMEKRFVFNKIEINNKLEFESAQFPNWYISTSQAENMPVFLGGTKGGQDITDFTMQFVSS

Question: For CC(=O)NCCOc1ccc(C[C@@H]2NC(=O)[C@H](CCC3CCCCC3)NC(=O)[C@@H](CCN)NC(=O)[C@H](CO)NC(=O)[C@H](Cc3c[nH]c4ncccc34)NC(=O)[C@H](Cc3ccc(-c4ccc(C(=O)O)cc4)cc3)NC(=O)CNC(=O)[C@@H](C)N(C)C(=O)[C@H](CC(=O)O)NC(=O)[C@H]([C@@H](C)c3cccc4ccccc34)NC(=O)[C@@H]3C[C@@H](N)CN3C(=O)CNC(=O)[C@H](Cc3ccc(C(=O)O)cc3)NC(=O)[C@H](Cc3c[nH]c4cc(Cl)ccc34)NC2=O)cc1 [Example 210] (cyclo([AEF](Ac)[Trp(6-Cl)][Phe(4-COOH)]G[Pro(4R-NH2)][1Nal(3S-Me)]D[dNMeA]G[Bip(4'-COOH)][Trp(7-aza)]S[dDab][hCha])), which IC50 is on record?
Answer: 0.02 nM

Question: How did the IC50 turn out when CC(=O)NCCOc1ccc(C[C@@H]2NC(=O)[C@H](CCc3ccc(O)cc3)NC(=O)[C@@H](CCN)NC(=O)CNC(=O)[C@H](CN3CCc4ccccc43)NC(=O)[C@H](Cc3ccc(-c4ccc(C(=O)O)cc4)cc3)NC(=O)CNC(=O)[C@@H](C)N(C)C(=O)[C@H](CC(=O)O)NC(=O)[C@H]([C@@H](C)c3cccc4ccccc34)NC(=O)[C@@H]3C[C@@H](N)CN3C(=O)CNC(=O)[C@H](Cc3ccc(C(=O)O)cc3)NC(=O)[C@H](Cc3c[nH]c4cc(F)ccc34)NC2=O)cc1 [Example 211] (cyclo([AEF](Ac)[Trp(6-F)][Phe(4-COOH)]G[Pro(4R-NH2)][1Nal(3S-Me)]D[dNMeA]G[Bip(4'-COOH)][Ala(indolin-1-yl)]G[dDab][hTyr])) was run?
Answer: 0.027 nM

Question: CC(=O)NCCOc1ccc(C[C@@H]2NC(=O)[C@H](CCC3CCCCC3)NC(=O)[C@@H](CCN)NC(=O)[C@H](CO)NC(=O)[C@H](Cc3c[nH]c4ncccc34)NC(=O)[C@H](Cc3ccc(-c4ccc(C(=O)O)cc4)cc3)NC(=O)CNC(=O)[C@@H](C)N(C)C(=O)[C@H](CC(=O)O)NC(=O)[C@H]([C@@H](C)c3cccc4ccccc34)NC(=O)[C@@H]3C[C@@H](N)CN3C(=O)CNC(=O)[C@H](Cc3ccc(C(=O)O)cc3)NC(=O)[C@H](Cc3c[nH]c4cc(F)ccc34)NC2=O)cc1 [Example 212] (cyclo([AEF](Ac)[Trp(6-F)][Phe(4-COOH)]G[Pro(4R-NH2)][1Nal(3S-Me)]D[dNMeA]G[Bip(4'-COOH)][Trp(7-aza)]S[dDab][hCha])) was tested. Which IC50 did it give?
Answer: 0.025 nM

Question: CC(=O)NCCOc1ccc(C[C@@H]2NC(=O)[C@H](CCC3CCCCC3)NC(=O)[C@@H](CC[N+](C)(C)C)NC(=O)[C@H](CO)NC(=O)[C@H](Cc3c[nH]c4ncccc34)NC(=O)[C@H](Cc3ccc(-c4ccc(C(=O)O)cc4)cc3)NC(=O)CNC(=O)[C@@H](C)N(C)C(=O)[C@H](CC(=O)O)NC(=O)[C@H]([C@@H](C)c3cccc4ccccc34)NC(=O)[C@@H]3C[C@@H](N)CN3C(=O)CNC(=O)[C@H](Cc3ccc(C(=O)O)cc3)NC(=O)[C@H](Cc3c[nH]c4cc(F)ccc34)NC2=O)cc1 [Example 213] (cyclo([AEF](Ac)[Trp(6-F)][Phe(4-COOH)]G[Pro(4R-NH2)][1Nal(3S-Me)]D[dNMeA]G[Bip(4'-COOH)][Trp(7-aza)]S[X14][hCha])) was tested. Which IC50 did it give?
Answer: 0.018 nM

Question: CC(=O)NCCOc1ccc(C[C@@H]2NC(=O)[C@H](CCC3CCCCC3)NC(=O)[C@@H](CCN)NC(=O)CNC(=O)[C@H](Cc3c[nH]c4ncccc34)NC(=O)[C@H](Cc3ccc(-c4ccc(C(=O)O)cc4)cc3)NC(=O)CNC(=O)[C@@H](C)N(C)C(=O)[C@H](CC(=O)O)NC(=O)[C@H]([C@@H](C)c3cccc4ccccc34)NC(=O)[C@@H]3C[C@@H](N)CN3C(=O)CNC(=O)[C@H](Cc3ccc(C(=O)O)cc3)NC(=O)[C@H](Cc3c[nH]c4ccccc34)NC2=O)cc1 [Example 214] (cyclo([AEF](Ac)W[Phe(4-COOH)]G[Pro(4R-NH2)][1Nal(3S-Me)]D[dNMeA]G[Bip(4'-COOH)][Trp(7-aza)]G[dDab][hCha])) was tested. Which IC50 did it give?
Answer: 0.02 nM

Question: With CC(=O)NCCOc1ccc(C[C@@H]2NC(=O)[C@H](CCc3ccc(O)cc3)NC(=O)[C@@H](CCN)NC(=O)CNC(=O)[C@H](Cc3c[nH]c4ncccc34)NC(=O)[C@H](Cc3ccc(-c4ccc(C(=O)O)cc4)cc3)NC(=O)CNC(=O)[C@@H](C)N(C)C(=O)[C@H](CC(=O)O)NC(=O)[C@H]([C@@H](C)c3cccc4ccccc34)NC(=O)[C@@H]3C[C@@H](N)CN3C(=O)CNC(=O)[C@H](Cc3ccc(C(=O)O)cc3)NC(=O)[C@H](Cc3c[nH]c4ccccc34)NC2=O)cc1 [Example 215] (cyclo([AEF](Ac)W[Phe(4-COOH)]G[Pro(4R-NH2)][1Nal(3S-Me)]D[dNMeA]G[Bip(4'-COOH)][Trp(7-aza)]G[dDab][hTyr])) as the compound, how does the IC50 read?
Answer: 0.024 nM
